Measured values taken from US11883411B2 (priority 2022, dated 2024).
Entries after “also recorded” stand apart in the source; their conditions may differ.

Legend:
p72 protein of ASFV = format: cell-based, African swine fever virus (ASFV)
ASFV fluorescent virus [1] = format: cell-based, African swine fever virus (ASFV)
ASFV fluorescent virus [2] = format: cell-based, African swine fever virus (ASFV); remark: listed apart in the source
ASFV fluorescent virus [3] = assay: microbe, parasite or virus in culture; format: cell-based, African swine fever virus (ASFV)
D1133L RNA of ASFV = format: cell-based
p30 protein of ASFV = format: cell-based, African swine fever virus (ASFV)
PAM cells = conditions: pig
D1133L protein of ASFV = format: cell-based

## C[C@@H](O[C@H]1OCCN(Cc2n[nH]c(=O)[nH]2)[C@H]1c1ccc(F)cc1)c1cc(C(F)(F)F)cc(C(F)(F)F)c1 [aprepitant, 5-[2(R)-[1(R)-[3,5-bis(trifluoromethyl)phenyl]ethoxy]-3(S)-(4-fluorophenyl)morpholino-4-ylmethyl]-3,4-dihydro-2H-1,2,4-triazol-3-one]
p72 protein of ASFV
  expression level of p72 protein: significantly decreased
ASFV fluorescent virus [1]
  fluorescence of ASFV fluorescent virus in infected cells: gradually becomes darker; also recorded: completely disappears
ASFV fluorescent virus [2]
  TCID50 of ASFV fluorescent virus: reduce the TCID50; also recorded: minimum
ASFV fluorescent virus [3]
  ASFV genome copy number: reduced
ASFV fluorescent virus [3]; African swine fever virus, 48 h, read-out: inhibition of ASFV genome copy number
  inhibition at 22 µM: > 50%
D1133L RNA of ASFV
  inhibition rate of D1133L RNA expression level: higher than 50%
p30 protein of ASFV
  expression level of p30 protein: significantly decreased
PAM cells
  cell viability: more than 50%
D1133L protein of ASFV
  expression level of D1133L protein: significantly decreased
